# Read-outs that look alike come from different tables or passages of the source.
# Columns and labels:
# [1] = tested on: H460 cell line; experiment: Anti-proliferation assay, hypoxia vs normoxia (Table 1A); conditions: for IC50: Homo sapiens; for HCR P: ratio of IC50 in normoxia and hypoxia
# [2] = tested on: NCI-H460 cells; experiment: Antiproliferation assay (Alamar Blue), anoxia vs air
# [3] = type: physicochemical; conditions: glassy carbon, Ag/AgCl reference; for Reduction Potentials, 10,000 mV/sec: scan rate 10,000 mV/sec; for Reduction Potentials, 100 mV/sec: scan rate 100 mV/sec
# [4] = tested on: NCI-H460 cells; experiment: Antiproliferation assay - oxygen dependence; type: cell-based, human; conditions: Homo sapiens
# Text: . […] The calculated IC50 values (μM) are tabulated in Table Y1 (H460 cells) or Table Y2 (HT29 cells) below.
# [5] = NCI-H460, read-out: Hypoxia P (proliferation IC50)
# [6] = NCI-H460, read-out: Normoxia P (proliferation IC50)
# [7] = Homo sapiens, NCI-H460, 2 h, read-out: IC50 H460 Air, air, 2 h exposure
# [8] = Homo sapiens, NCI-H460, 2 h, read-out: IC50 H460 Anoxia, anoxia, 2 h exposure
# [9] = NCI-H460, read-out: IC50 in H460 cells, 0.6% O2
# [10] = NCI-H460, read-out: IC50 in H460 cells, Air
# [11] = NCI-H460, read-out: IC50 in H460 cells, N2
Structure (SMILES),"IC50 [1, 5] [µM]","IC50 [1, 6] [µM]",HCR P [1],"IC50 [2, 7] [µM]","IC50 [2, 8] [µM]",also measured
Cn1c([N+](=O)[O-])cnc1COc1ccc(COP(N)(=O)N(CCCl)CCCl)cc1 (stereo not shown) [Compound S1],> 40,> 100,>3,–,–,–
"O=[N+]([O-])c1ccc(COP(=O)(N(CCCl)CCCl)N(CCCl)CCCl)o1 [Compound P22, reference compound]",4.5,3.5,ca. 1,–,–,–
Cc1csc(C(C)OP(=O)(NCCBr)NCCBr)c1[N+](=O)[O-] (stereo not shown) [Compound 103],–,–,–,–,–,"IC50 ([2]; read-out: IC50 H460 Air, air, 2 h exposure): 2 µM; IC50 ([2]; read-out: IC50 H460 Anoxia, anoxia, 2 h exposure): 0.02 µM; Reduction Potentials, 10,000 mV/sec [3]: −756 mV"
CN(CCCl)P(=O)(OCc1c(F)c(F)c(OCc2ncc([N+](=O)[O-])n2C)c(F)c1F)N(C)CCCl [Compound 17],1,9,9,9,1,–
COc1cc(COP(=O)(N(C)CCCl)N(C)CCCl)ccc1OCc1cnc([N+](=O)[O-])n1C [Compound 18],3.4,9,3,9,3.4,–
O=[N+]([O-])c1ccc(COP(=O)(NCCNP(=O)(OCc2ccc([N+](=O)[O-])o2)N(CCCl)CCCl)N(CCCl)CCCl)o1 (stereo not shown) [Compound 21],0.25,7.8,26,–,–,–
O=[N+]([O-])c1ccc(-c2ccc(COP(=O)(NCCBr)NCCBr)cc2)s1 [Compound 53],–,–,–,10,3,"IC50 [4, 9]: 5 µM; IC50 [4, 10]: 10 µM"
O=[N+]([O-])c1ccc(COP(=O)(N(CCCl)CCCl)N2CCCC2)o1 (stereo not shown) [Compound 11],5.2,> 100,>20,> 100,5.2,–
"O=[N+]([O-])c1ncc[nH]1 [2-NO2-Imidazole, reference compound]",–,–,–,–,–,"Reduction Potentials, 100 mV/sec [3]: −634 mV; Reduction Potentials, 10,000 mV/sec [3]: −693 mV"
O=[N+]([O-])c1ccc(-c2ccc(COP(=O)(NCCBr)NCCBr)cc2)o1 [Compound 55],–,–,–,12,5,"IC50 [4, 9]: 8 µM; IC50 [4, 10]: 12 µM; IC50 [4, 11]: 5 µM"
CC(OP(=O)(NCCBr)NCCBr)c1ccc([N+](=O)[O-])s1 (stereo not shown) [Compound 88],–,–,–,0.53,0.03,"IC50 ([4]; NCI-H460, read-out: IC50 in H460 cells, 0.3% O2): 0.5 µM; IC50 [4, 9]: 0.2 µM; IC50 [4, 10]: 0.5 µM; IC50 [4, 11]: 0.03 µM; Reduction Potentials, 100 mV/sec [3]: −559 mV; Reduction Potentials, 10,000 mV/sec [3]: −629 mV"
CN(CCCl)P(=O)(OCc1ccc([N+](=O)[O-])o1)N(C)CCCl [Compound 8],0.01,0.6,60,0.6,0.013,–
Cn1c([N+](=O)[O-])cnc1COc1ccc(COP(N)(=O)N(CCCl)CCCl)cc1F (stereo not shown) [Compound 3],> 20,> 100,>5,> 100,> 20,–
O=[N+]([O-])c1ccc(COP2(=O)N(CCBr)CCN2CCBr)o1 [Compound 109],–,–,–,13,0.3,"IC50 [4, 9]: 10 µM; IC50 [4, 10]: 15 µM; IC50 [4, 11]: 0.3 µM"
CC(C)(OP(N)(=O)N(CCCl)CCCl)c1ccc([N+](=O)[O-])cc1 (stereo not shown) [Compound 113],–,–,–,≥ 100,1,"IC50 [4, 9]: > 100 µM; IC50 [4, 10]: > 100 µM; IC50 [4, 11]: 1 µM"
O=[N+]([O-])c1ccc(COP(=O)(NCCCCNP(=O)(OCc2ccc([N+](=O)[O-])o2)N(CCCl)CCCl)N(CCCl)CCCl)o1 (stereo not shown) [Compound 20],1,8.5,8,–,–,–
O=[N+]([O-])c1ccc(COP(=O)(N(CCCl)CCCl)N2CCOCC2)o1 (stereo not shown) [Compound 12],1.7,> 100,>50,> 100,1.7,–
O=[N+]([O-])c1ccc(COCOP(=O)(NCCCl)NCCCl)o1 [Compound 31],83,> 100,>1,> 100,83,–
CC(OP(N)(=O)N(CCCl)CCCl)c1cnc([N+](=O)[O-])n1C (stereo not shown) [Compound 114],–,–,–,80,1,"IC50 [4, 9]: 5 µM; IC50 [4, 10]: 80 µM; IC50 [4, 11]: 1 µM"
CC(C)N(CCCl)P(=O)(OCc1cnc([N+](=O)[O-])n1C)N(CCCl)C(C)C [Compound 14],8.5,> 100,>12,> 100,8.5,–
CCN(CCCl)P(=O)(OCc1cnc([N+](=O)[O-])n1C)N(CC)CCCl [Compound 15],0.08,1,12,1,0.08,–

# Reference: patent US8507464B2, “Phosphoramidate alkylator prodrugs” (Threshold Pharmaceuticals, Inc., priority 2005, dated 2013)
